Data: patent publication US8987195B2 (priority 2012, dated 2015)
Like-named read-outs stand apart in the source and are kept apart here.

Tests used:
[1] = biological target: HCV NS3/4A protease genotype 1b (Hepatitis C virus genotype 1b, UniProt P26663); test: HCV NS3/4A protease time-resolved fluorescence (TRF) assay, Ki against genotype 1b; format: biochemical; settings: IC50 [gt-1b], NS3/4A protease TRF assay, genotype 1b enzyme 0.2 nM
Procedure, shortened: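 Time-resolved fluorescence readout of NS3/4A cleavage of 25 nM europium-labelled peptide over 2.5 h at room temperature, enzyme levels set for signal/background 10–30 (0.2, 0.4, 0.025 nM for 1b, A156T, 3a). Ki by IC50=Ki(1+[S]/KM).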

HCV genotype 1b replicon = test: HCV replicon assay, genotype 1b replicon EC50; format: cell-based, Hepatitis C virus; settings: Hepatitis C virus, HCV replicon, genotype 1b, read-out: EC50 [gt-1b]
Procedure, shortened: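 Readout was replicon RNA copy number, by 32P-probe protection or TaqMan normalized to cellular cyclophilin A RNA, or luciferase activity for luciferase:Neo^r fusion lines. Cells were exposed to serially diluted compound for 24-48 hours without G418, then washed and lysed. EC50 derived from four-parameter fit relative to DMSO.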

Row | SMILES | IC50 [1] | EC50 (HCV genotype 1b replicon) | IC50 ([1]; K+ salt) | EC50 (HCV genotype 1b replicon; K+ salt)
1 | CCc1nc2ccc(OCCCOC)cc2c2c1O[C@]1(CC2)C[C@H]2C(=O)N[C@]3(C(=O)NS(=O)(=O)C4(C)CC4)C[C@H]3/C=C\CCCCC[C@H](NC(=O)OC(C)(C)C)C(=O)N2C1 [Example 479, tert-butyl [(2R,6S,12Z,13aS,14aR,16aS)-5′-ethyl-9′-(3-methoxypropoxy)-14a-{[(1-methylcyclopropyl)sulfonyl]carbamoyl}-5,16-dioxo-1,1′,2′,5,6,7,8,9,10,11,13a,14,14a,15,16,16a-hexadecahydrospiro[cyclopropa[e]pyrrolo[1,2-a][1,4]diazacyclopentadecine-2,3′-pyrano[2,3-c]quinolin]-6-yl]carbamate] | 0.005 nM | 1.05 nM | – | –
2 | CCc1nc2ccc(OC)cc2c2c1O[C@]1(CC2)C[C@H]2C(=O)N[C@]3(C(=O)NS(=O)(=O)C4(C)CC4)C[C@H]3/C=C\CCCCC[C@H](NC(=O)c3sccc3C)C(=O)N2C1 [Example 480, (2R,6S,12Z,13aS,14aR,16aS)-5′-ethyl-9′-methoxy-N-[(1-methylcyclopropyl)sulfonyl]-6-{[(3-methylthiophen-2-yl)carbonyl]amino}-5,16-dioxo-1,1′,2′,6,7,8,9,10,11,13a,14,15,16,16a-tetradecahydrospiro[cyclopropa[e]pyrrolo[1,2-a][1,4]diazacyclopentadecine-2,3′-pyrano[2,3-c]quinoline]-14a(5H)-carboxamide] | 0.006 nM | 0.266 nM | – | –
3 | CCc1nc2ccc(OC)cc2c2c1O[C@]1(CC2)C[C@H]2C(=O)N[C@]3(C(=O)NS(=O)(=O)C4(C)CC4)C[C@H]3/C=C\CCCCC[C@H](NC(=O)c3c(C)n[nH]c3C)C(=O)N2C1 [Example 485, (2R,6S,12Z,13aS,14aR,16aS)-6-{[(3,5-dimethyl-1H-pyrazol-4-yl)carbonyl]amino}-5′-ethyl-9′-methoxy-N-[(1-methylcyclopropyl)sulfonyl]-5,16-dioxo-1,1′,2′,6,7,8,9,10,11,13a,14,15,16,16a-tetradecahydrospiro[cyclopropa[e]pyrrolo[1,2-a][1,4]diazacyclopentadecine-2,3′-pyrano[2,3-c]quinoline]-14a(5H)-carboxamide] | 0.005 nM | 0.306 nM | – | –
4 | CCc1nc2ccc(OC)cc2c2c1O[C@]1(CC2)C[C@H]2C(=O)N[C@]3(C(=O)NS(=O)(=O)C4(C)CC4)C[C@H]3/C=C\CCCCC[C@H](NC(=O)O[C@@H](C)C3CC3)C(=O)N2C1 [Example 486, (1S)-1-cyclopropylethyl [(2R,6S,12Z,13aS,14aR,16aS)-5′-ethyl-9′-methoxy-14a-{[(1-methylcyclopropyl)sulfonyl]carbamoyl}-5,16-dioxo-1,1′,2′,5,6,7,8,9,10,11,13a,14,14a,15,16,16a-hexadecahydrospiro[cyclopropa[e]pyrrolo[1,2-a][1,4]diazacyclopentadecine-2,3′-pyrano[2,3-c]quinolin]-6-yl]carbamate] | 0.01 nM | 15.2 nM | – | –
5 | CCc1nc2ccc(OCCCOC)cc2c2c1O[C@]1(CC2)C[C@H]2C(=O)N[C@]3(C(=O)NS(=O)(=O)C4(C)CC4)C[C@H]3/C=C\CCCCC[C@H](NC(=O)O[C@@H](C)C(C)C)C(=O)N2C1 [Example 487, (2S)-3-methylbutan-2-yl [(2R,6S,12Z,13aS,14aR,16aS)-5′-ethyl-9′-(3-methoxypropoxy)-14a-{[(1-methylcyclopropyl)sulfonyl]carbamoyl}-5,16-dioxo-1,1′,2′,5,6,7,8,9,10,11,13a,14,14a,15,16,16a-hexadecahydrospiro[cyclopropa[e]pyrrolo[1,2-a][1,4]diazacyclopentadecine-2,3′-pyrano[2,3-c]quinolin]-6-yl]carbamate] | – | – | 0.005 nM | 0.343 nM
6 | COc1ccc2nc(C(F)(F)F)c3c(c2c1)[C@](C)(O)C[C@]1(C[C@H]2C(=O)N[C@]4(C(=O)NS(=O)(=O)C5(C)CC5)C[C@H]4/C=C\CCCCC[C@H](NC(=O)OC(C)(C)C)C(=O)N2C1)O3 [Example 489, tert-butyl [(1′R,2S,6S,12Z,13aS,14aR,16aS)-1′-hydroxy-9′-methoxy-1′-methyl-14a-{[(1-methylcyclopropyl)sulfonyl]carbamoyl}-5,16-dioxo-5′-(trifluoromethyl)-1,1′,2′,5,6,7,8,9,10,11,13a,14,14a,15,16,16a-hexadecahydrospiro[cyclopropa[e]pyrrolo[1,2-a][1,4]diazacyclopentadecine-2,3′-pyrano[2,3-c]quinolin]-6-yl]carbamate] | 0.016 nM | 4.22 nM | – | –
7 | CCc1nc2ccc(OC)cc2c2c1O[C@]1(CC2)C[C@H]2C(=O)N[C@]3(C(=O)NS(=O)(=O)C4(C)CC4)C[C@H]3/C=C\CCCCC[C@H](NC(=O)c3sccc3F)C(=O)N2C1 [Example 490, (2R,6S,12Z,13aS,14aR,16aS)-5′-ethyl-6-{[(3-fluorothiophen-2-yl)carbonyl]amino}-9′-methoxy-N-[(1-methylcyclopropyl)sulfonyl]-5,16-dioxo-1,1′,2′,6,7,8,9,10,11,13a,14,15,16,16a-tetradecahydrospiro[cyclopropa[e]pyrrolo[1,2-a][1,4]diazacyclopentadecine-2,3′-pyrano[2,3-c]quinoline]-14a(5H)-carboxamide] | 0.017 nM | 0.464 nM | – | –
8 | CC(C)COC(=O)N[C@H]1CCCCC/C=C\[C@@H]2C[C@@]2(C(=O)NS(=O)(=O)C2(C)CC2)NC(=O)[C@@H]2C[C@]3(CCc4c(c(C(F)(F)F)nc5ccc(OCF)cc45)O3)CN2C1=O [Example 491, 2-methylpropyl [(2R,6S,12Z,13aS,14aR,16aS)-9′-(fluoromethoxy)-14a-{[(1-methylcyclopropyl)sulfonyl]carbamoyl}-5,16-dioxo-5′-(trifluoromethyl)-1,1′,2′,5,6,7,8,9,10,11,13a,14,14a,15,16,16a-hexadecahydrospiro[cyclopropa[e]pyrrolo[1,2-a][1,4]diazacyclopentadecine-2,3′-pyrano[2,3-c]quinolin]-6-yl]carbamate] | – | – | 0.003 nM | 2.53 nM
9 | CC(C)(C)OC(=O)N[C@H]1CCCCC/C=C\[C@@H]2C[C@@]2(C(=O)NS(=O)(=O)C2(C)CC2)NC(=O)[C@@H]2C[C@]3(CCc4c(c(C(F)(F)F)nc5ccc(OCCO[Si](C)(C)C(C)(C)C)cc45)O3)CN2C1=O [Example 492, tert-butyl [(2R,6S,12Z,13aS,14aR,16aS)-9′-(2-{[tert-butyl(dimethyl)silyl]oxy}ethoxy)-14a-{[(1-methylcyclopropyl)sulfonyl]carbamoyl}-5,16-dioxo-5′-(trifluoromethyl)-1,1′,2′,5,6,7,8,9,10,11,13a,14,14a,15,16,16a-hexadecahydrospiro[cyclopropa[e]pyrrolo[1,2-a][1,4]diazacyclopentadecine-2,3′-pyrano[2,3-c]quinolin]-6-yl]carbamate] | 0.044 nM | 1.39 nM | – | –
10 | COc1ccc2nc(C(F)F)c3c(c2c1)CC[C@]1(C[C@H]2C(=O)N[C@]4(C(=O)NS(=O)(=O)C5(C)CC5)C[C@H]4/C=C\CCCCC[C@H](NC(=O)OC4(C)CCC4)C(=O)N2C1)O3 [Example 493, 1-methylcyclobutyl [(2R,6S,12Z,13aS,14aR,16aS)-5′-(difluoromethyl)-9′-methoxy-14a-{[(1-methylcyclopropyl)sulfonyl]carbamoyl}-5,16-dioxo-1,1′,2′,5,6,7,8,9,10,11,13a,14,14a,15,16,16a-hexadecahydrospiro[cyclopropa[e]pyrrolo[1,2-a][1,4]diazacyclopentadecine-2,3′-pyrano[2,3-c]quinolin]-6-yl]carbamate] | – | – | 0.003 nM | 0.283 nM
11 | COCC1(S(=O)(=O)NC(=O)[C@@]23C[C@H]2/C=C\CCCCC[C@H](NC(=O)OCC2(C)CC2)C(=O)N2C[C@@]4(CCc5c(c(C(F)(F)F)nc6ccc(OC)cc56)O4)C[C@H]2C(=O)N3)CC1 [Example 494, (1-methylcyclopropyl)methyl [(2R,6S,12Z,13aS,14aR,16aS)-9′-methoxy-14a-({[1-(methoxymethyl)cyclopropyl]sulfonyl}carbamoyl)-5,16-dioxo-5′-(trifluoromethyl)-1,1′,2′,5,6,7,8,9,10,11,13a,14,14a,15,16,16a-hexadecahydrospiro[cyclopropa[e]pyrrolo[1,2-a][1,4]diazacyclopentadecine-2,3′-pyrano[2,3-c]quinolin]-6-yl]carbamate] | 0.018 nM | 1.73 nM | – | –
12 | COCC1(S(=O)(=O)NC(=O)[C@@]23C[C@H]2/C=C\CCCCC[C@H](NC(=O)OC2(C)CCC2)C(=O)N2C[C@@]4(CCc5c(c(C(F)(F)F)nc6ccc(OC)cc56)O4)C[C@H]2C(=O)N3)CC1 [Example 495, 1-methylcyclobutyl [(2R,6S,12Z,13aS,14aR,16aS)-9′-methoxy-14a-({[1-(methoxymethyl)cyclopropyl]sulfonyl}carbamoyl)-5,16-dioxo-5′-(trifluoromethyl)-1,1′,2′,5,6,7,8,9,10,11,13a,14,14a,15,16,16a-hexadecahydrospiro[cyclopropa[e]pyrrolo[1,2-a][1,4]diazacyclopentadecine-2,3′-pyrano[2,3-c]quinolin]-6-yl]carbamate] | 0.007 nM | 1.45 nM | – | –
